Common to all, as to assay: NCI-60 cell line screen, 48 h
In test [1] the test system is SNB-19.
For test [2], the system named is 786-0.
Test [3] relates to SK-MEL-5.
The subject of test [4] is SF-539.
Test [5] deals with ACHN.
Test [6] deals with LOX IMVI.
Test [7] concerns HOP-92.
Test [8] deals with SF-295.
Test [9] relates to SR.
The test system of test [10] is UO-31.
For test [11], the system named is SK-MEL-28.
Test [12] deals with DU-145.
In test [13] the test system is MOLT-4.
For test [14], the system named is KM12.
Test [15] concerns A549.
Test [16] deals with Malme-3M.
Test [17] has as its system OVCAR-8.
The subject of test [18] is MDA-MB-231.
The subject of test [19] is NCI-H23.
Test [20] concerns HCC 2998.

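Grown in 96-well plates, cells were treated for 48 hours with each compound at five concentrations. Insufficient inhibition: endpoint recorded as highest concentration tested. GI50 is the concentration that inhibits growth by half.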 Calls of active or inactive are those of the source. No stated cut-off is given here; in the data, active = GI50 up to about 1.1 µM and inactive = higher.

Regarding `Cn1c(=O)c2nc(SCCN3CCOCC3)[nH]c2n(C)c1=S`, the GI50 in test [1], in test [2], in test [3], in test [4], in test [5] and in test [6] was > 100 µM (inactive) each time. For the same compound, the GI50 in [7], in test [8], in [9], in test [10], in test [11] and in [12] was > 100 µM (inactive) throughout. Further, the GI50 in test [13], in test [14], in test [15], in [16], in [17] and in [18] was > 100 µM (inactive) in each case. For the same compound, in test [19], the GI50 was > 100 µM (inactive).

For `CC(C)=CC(=O)OC1C2C(C)=CC(=O)C(O)C2(C)C2C3(O)OCC24C(CC(=O)OC14)C(C)C3O` (stereo not drawn), the GI50 was 0.00349 µM (active) in [1]; 0.01 µM (active) in test [2]; 0.00308 µM (active) in test [3]; 0.00505 µM (active) in [4]; 0.022 µM (active) in [5]; 0.0015 µM (active) in [6]. The GI50 was 0.00684 µM (active) in test [7]; 0.0277 µM (active) in test [8]; 0.000774 µM (active) in [9]; 0.203 µM (active) in test [10]; 0.00461 µM (active) in test [11]; 0.00354 µM (active) in test [12]. In addition, the GI50 in test [20] is 0.0128 µM (active); in test [13], 0.0011 µM (active); in [14], 0.0139 µM (active); in [15], 0.152 µM (active); in test [17] it was 0.017 µM (active); in test [18], 0.0168 µM (active). Also, the GI50 in test [19] was 0.00655 µM (active).

As for `O=C(O)CN1CCNCCN(CP(=O)(O)O)CC1`, the GI50 was > 100 µM (inactive) in test [1]; 4.83 µM (inactive) in test [2]; 4.28 µM (inactive) in test [3]; > 100 µM (inactive) in [5]; 22.3 µM (inactive) in [7]; 26.2 µM (inactive) in test [8]. The GI50 is > 20.2 µM (inactive) in test [9]; 53.2 µM (inactive) in [10]; > 100 µM (inactive) in test [11]; > 100 µM (inactive) in test [12]; 3.28 µM (inactive) in test [20]; 4.34 µM (inactive) in test [13]. The GI50 is 5.47 µM (inactive) in test [14]; 4.89 µM (inactive) in [15]; 1.75 µM (inactive) in test [16]; > 70.1 µM (inactive) in [18]; > 100 µM (inactive) in [19].

For `Cc1cc(CN2CCCCC2)c(O)c(CN2CCCCC2)c1`, the GI50 in [1], in [2], in test [3], in [5], in test [6] and in test [7] was > 100 µM (inactive) throughout. Further, the GI50 in test [8], in test [9], in [10], in test [11], in test [12] and in [20] was > 100 µM (inactive) in each case. Further, the GI50 in [14], in test [15], in [16], in test [17], in test [18] and in test [19] was > 100 µM (inactive) throughout.

Turning to `CCOCc1nc2c(OC)c(-c3nc4ccc(N5CCN(C)CC5)cc4[nH]3)cc(OC)c2[nH]1`, the GI50 in [1] was 44.4 µM (inactive); in test [2] it was 31 µM (inactive); in test [3], 17.5 µM (inactive); in [4], 19.3 µM (inactive); in [5], 57.4 µM (inactive); in [6], 21.1 µM (inactive). Moreover, the GI50 in [7] is > 100 µM (inactive); in test [8], 21 µM (inactive); in test [9], 24.2 µM (inactive); in [10], 22.1 µM (inactive); in test [11], 18.6 µM (inactive); in test [12], 68.5 µM (inactive). Moreover, the GI50 in test [13] was 31.2 µM (inactive); in test [14] it was 31.6 µM (inactive); in test [15], 46.9 µM (inactive); in [16] it was 18 µM (inactive); in test [17] it was 80.2 µM (inactive); in test [18], 28.2 µM (inactive). Besides, the GI50 in [19] was 37.8 µM (inactive).

Turning to `CCOc1ccccc1/N=C\c1c2ccccc2cc2ccccc12`, the GI50 in test [1] is 26.4 µM (inactive); in test [2], 18.8 µM (inactive); in test [3], 25.6 µM (inactive); in test [4], 23.8 µM (inactive); in test [5] it was 29 µM (inactive); in [6], 19.1 µM (inactive). Also, the GI50 in test [7] was 21 µM (inactive); in [8], 30 µM (inactive); in test [9], 15.2 µM (inactive); in test [10] it was 18.6 µM (inactive); in test [11], 26.2 µM (inactive); in [12] it was 22.1 µM (inactive). For the same compound, the GI50 in [20] was 18.5 µM (inactive); in test [13], 11.6 µM (inactive); in test [14], 15.1 µM (inactive); in test [15], 26.4 µM (inactive); in test [17] it was 23.8 µM (inactive); in test [18], 27.2 µM (inactive). For the same compound, the GI50 in test [19] was 17.3 µM (inactive).

Turning to `Cc1ccc(C(=O)N/N=C(\N=N\c2ccccc2Cl)c2ccc(N(C)C)cc2)cc1`, the GI50 was 28.1 µM (inactive) in test [1]; 48.3 µM (inactive) in [2]; 21.3 µM (inactive) in [3]; 21.4 µM (inactive) in [4]; 13.3 µM (inactive) in test [5]; 43.6 µM (inactive) in test [6]. The GI50 in [7] was > 100 µM (inactive); in test [8], 28.8 µM (inactive); in test [9] it was 18.1 µM (inactive); in test [10], 29.4 µM (inactive); in [11], > 100 µM (inactive); in test [12] it was 2.61 µM (inactive). For the same compound, the GI50 in test [20] is 25.1 µM (inactive); in [13] it was 20 µM (inactive); in test [14], 21.9 µM (inactive); in [15] it was 50.6 µM (inactive); in test [17], 61.5 µM (inactive); in test [18], 52.6 µM (inactive). Moreover, the GI50 in test [19] was 50.7 µM (inactive).

Turning to `S=C(NC/C(Br)=C/Br)Nc1cccc2ccccc12`, the GI50 in test [1] is 34 µM (inactive); in [2], 38.8 µM (inactive); in test [3], 16.4 µM (inactive); in [4], 25.5 µM (inactive); in [5], 28.9 µM (inactive); in test [6], 24.8 µM (inactive). For the same compound, the GI50 in [7] is 20.2 µM (inactive); in [8] it was 33.3 µM (inactive); in [9] it was 15.4 µM (inactive); in [10] it was 20.9 µM (inactive); in [12], 30.9 µM (inactive); in test [13], 17.8 µM (inactive). Moreover, the GI50 in test [15] was 34.2 µM (inactive); in test [16], 28.9 µM (inactive); in test [17] it was 27.6 µM (inactive); in test [18], 19.4 µM (inactive); in test [19] it was 23.5 µM (inactive).

With `COc1cc(S(=O)(=O)Nc2nc(-c3ccc(N4C(=O)/C(=C/c5ccccc5[N+](=O)[O-])N=C4c4ccccc4)cc3)cs2)ccc1Cl`, the GI50 is 89.9 µM (inactive) in test [1]; > 100 µM (inactive) in test [2]; 48.9 µM (inactive) in [3]; > 100 µM (inactive) in test [4]; > 100 µM (inactive) in test [5]; 50.2 µM (inactive) in test [6]. The GI50 was 88.3 µM (inactive) in [7]; > 100 µM (inactive) in test [8]; 34.3 µM (inactive) in test [9]; > 100 µM (inactive) in [10]; > 100 µM (inactive) in test [11]; > 100 µM (inactive) in test [12]. For the same compound, the GI50 in test [13] was 37.7 µM (inactive); in test [14] it was 73.1 µM (inactive); in test [15], > 100 µM (inactive); in test [16], > 100 µM (inactive); in [17] it was > 100 µM (inactive); in test [18] it was 19.9 µM (inactive). The GI50 in test [19] is 29.9 µM (inactive).

For `CC1=NN(c2ccc(S(=O)(=O)O)cc2)C2(C1)C(Cl)C(=O)N2c1nc2ccccc2s1` (stereo not drawn), the GI50 in [1] was > 100 µM (inactive); in [2], > 100 µM (inactive); in test [3] it was > 100 µM (inactive); in [5] it was > 100 µM (inactive); in test [6], 57.8 µM (inactive); in test [7], > 100 µM (inactive). The GI50 in [8], in test [9], in [10], in [11], in test [12] and in test [20] was > 100 µM (inactive) in each case. Moreover, the GI50 in test [13], in test [14], in test [15], in test [16], in test [17] and in test [18] was > 100 µM (inactive) in each case. Besides, in test [19], the GI50 was > 100 µM (inactive).

Regarding `O=C(OCc1ccccc1)N1CCNCCNCCN(C(=O)OCc2ccccc2)CCNCC1`, the GI50 is 68.5 µM (inactive) in [1]; 14.3 µM (inactive) in test [2]; 14.1 µM (inactive) in test [3]; 18.5 µM (inactive) in test [4]; 39.9 µM (inactive) in test [5]; 16.3 µM (inactive) in test [6]. Further, the GI50 in test [7] is 20.6 µM (inactive); in [8], 16.4 µM (inactive); in test [9], 14.1 µM (inactive); in [10], 12.7 µM (inactive); in [11], 15.3 µM (inactive); in test [12], > 100 µM (inactive). Also, the GI50 in [13] is 16.7 µM (inactive); in test [14] it was 29.6 µM (inactive); in test [15] it was 63.4 µM (inactive); in test [16] it was 20.1 µM (inactive); in [17], 17.3 µM (inactive); in test [18] it was 16.1 µM (inactive).

The record behind these values is ChEMBL document CHEMBL1201862, “PubChem BioAssay data set” (2004).
